Laboratory results published in ChEMBL document CHEMBL5724914, “Linking interpersonal differences in gut microbiota composition and drug biotransformation activity” (2024).

Tests used:
[1] = The drug is tested on Z-021 corresponding to metagenome with ENA study accession number: PRJEB37062 and ENA sample accession number: ERS12561820 for biotransformation under anaerobic condition. The drug concentrations were measured over 9 timepoints collected between 0 and 24 hours of incubation by liquid-chromatography-coupled mass spectrometry (LC–MS); settings: 2 µM
[2] = The drug is tested on Z-020 corresponding to rabbit gut metagenome with ENA study accession number: PRJEB37062 and ENA sample accession number: ERS12561819 for biotransformation under anaerobic condition. The drug concentrations were measured over 9 timepoints collected between 0 and 24 hours of incubation by liquid-chromatography-coupled mass spectrometry (LC–MS); settings: 2 µM
[3] = The drug is tested on Z-019 corresponding to rat gut metagenome with ENA study accession number: PRJEB37062 and ENA sample accession number: ERS12561818 for biotransformation under anaerobic condition. The drug concentrations were measured over 9 timepoints collected between 0 and 24 hours of incubation by liquid-chromatography-coupled mass spectrometry (LC–MS); settings: 2 µM
[4] = The drug is tested on Z-018 corresponding to pig gut metagenome with ENA study accession number: PRJEB37062 and ENA sample accession number: ERS12561817 for biotransformation under anaerobic condition. The drug concentrations were measured over 9 timepoints collected between 0 and 24 hours of incubation by liquid-chromatography-coupled mass spectrometry (LC–MS); settings: 2 µM
[5] = The drug is tested on Z-017 corresponding to mouse gut metagenome with ENA study accession number: PRJEB37062 and ENA sample accession number: ERS12561816 for biotransformation under anaerobic condition. The drug concentrations were measured over 9 timepoints collected between 0 and 24 hours of incubation by liquid-chromatography-coupled mass spectrometry (LC–MS); settings: 2 µM
[6] = The drug is tested on Z-016 corresponding to mouse gut metagenome with ENA study accession number: PRJEB37062 and ENA sample accession number: ERS12561815 for biotransformation under anaerobic condition. The drug concentrations were measured over 9 timepoints collected between 0 and 24 hours of incubation by liquid-chromatography-coupled mass spectrometry (LC–MS); settings: 2 µM
[7] = The drug is tested on Z-001 corresponding to mouse gut metagenome with ENA study accession number: PRJEB37062 and ENA sample accession number: ERS12561801 for biotransformation under anaerobic condition. The drug concentrations were measured over 9 timepoints collected between 0 and 24 hours of incubation by liquid-chromatography-coupled mass spectrometry (LC–MS); settings: 2 µM
[8] = The drug is tested on WLS-350 corresponding to human gut metagenome with ENA study accession number: PRJEB37062 and ENA sample accession number: ERS12561789 for biotransformation under anaerobic condition. The drug concentrations were measured over 9 timepoints collected between 0 and 24 hours of incubation by liquid-chromatography-coupled mass spectrometry (LC–MS); settings: 2 µM
[9] = The drug is tested on WLS-220 corresponding to human gut metagenome with ENA study accession number: PRJEB37062 and ENA sample accession number: ERS12561769 for biotransformation under anaerobic condition. The drug concentrations were measured over 9 timepoints collected between 0 and 24 hours of incubation by liquid-chromatography-coupled mass spectrometry (LC–MS); settings: 2 µM
[10] = The drug is tested on WLS-082 corresponding to human gut metagenome with ENA study accession number: PRJEB37062 and ENA sample accession number: ERS12561751 for biotransformation under anaerobic condition. The drug concentrations were measured over 9 timepoints collected between 0 and 24 hours of incubation by liquid-chromatography-coupled mass spectrometry (LC–MS); settings: 2 µM
[11] = The drug is tested on WLS-039 corresponding to human gut metagenome with ENA study accession number: PRJEB37062 and ENA sample accession number: ERS12561746 for biotransformation under anaerobic condition. The drug concentrations were measured over 9 timepoints collected between 0 and 24 hours of incubation by liquid-chromatography-coupled mass spectrometry (LC–MS); settings: 2 µM
[12] = human gut metagenome, 24 h, 2 µM
[13] = human gut metagenome, 24 h, 2 µM; remark: listed apart in the source
[14] = human gut metagenome, 24 h, 2 µM; remark: listed apart in the source
[15] = human gut metagenome, 24 h, 2 µM; remark: listed apart in the source
[16] = human gut metagenome, 24 h, 2 µM; remark: listed apart in the source
[17] = human gut metagenome, 24 h, 2 µM; remark: listed apart in the source
[18] = human gut metagenome, 24 h, 2 µM; remark: listed apart in the source
[19] = human gut metagenome, 24 h, 2 µM; remark: listed apart in the source
[20] = human gut metagenome, 24 h, 2 µM; remark: listed apart in the source
Also: call rule not given here.

Structure (SMILES)	Bacterial Biotransformation [1]	Bacterial Biotransformation [2]	Bacterial Biotransformation [3]	Bacterial Biotransformation [4]	Bacterial Biotransformation [5]	Bacterial Biotransformation [6]	Bacterial Biotransformation [7]	Bacterial Biotransformation [8]	Bacterial Biotransformation [9]	Bacterial Biotransformation [10]	Bacterial Biotransformation [11]	Bacterial Biotransformation [12]	Bacterial Biotransformation [13]	Bacterial Biotransformation [14]	Bacterial Biotransformation [15]	Bacterial Biotransformation [16]	Bacterial Biotransformation [17]	Bacterial Biotransformation [18]	Bacterial Biotransformation [19]	Bacterial Biotransformation [20]
Clc1ccc(Cn2c(CN3CCCC3)nc3ccccc32)cc1 [CLEMIZOLE]	Compound metabolized	Compound NOT metabolized	Compound NOT metabolized	Compound metabolized	Compound NOT metabolized	Compound NOT metabolized	Compound metabolized	Compound metabolized	Compound NOT metabolized	Compound metabolized	Compound metabolized	Compound metabolized	Compound metabolized	Compound NOT metabolized	Compound metabolized	Compound metabolized	Compound metabolized	Compound metabolized	Compound metabolized	Compound metabolized
CN1CCN(C2=Nc3cc(Cl)ccc3Nc3ccccc32)CC1 [CLOZAPINE]	Compound NOT metabolized	Compound NOT metabolized	Compound NOT metabolized	Compound NOT metabolized	Compound NOT metabolized	Compound NOT metabolized	Compound NOT metabolized	Compound metabolized	Compound metabolized	Compound NOT metabolized	Compound metabolized	Compound NOT metabolized	Compound NOT metabolized	Compound metabolized	Compound NOT metabolized	Compound metabolized	Compound NOT metabolized	Compound metabolized	Compound metabolized	Compound metabolized
COc1cc2c(c(OC)c1OC)-c1ccc(OC)c(=O)cc1[C@@H](NC(C)=O)CC2 [COLCHICINE]	Compound NOT metabolized	Compound NOT metabolized	Compound NOT metabolized	Compound NOT metabolized	Compound NOT metabolized	Compound metabolized	Compound NOT metabolized	Compound NOT metabolized	Compound metabolized	Compound metabolized	Compound metabolized	Compound NOT metabolized	Compound NOT metabolized	Compound metabolized	Compound metabolized	Compound metabolized	Compound metabolized	Compound metabolized	Compound metabolized	Compound metabolized
CC(=O)OCC(=O)[C@@]12N=C(C)O[C@@H]1C[C@H]1[C@@H]3CCC4=CC(=O)C=C[C@]4(C)[C@H]3[C@@H](O)C[C@@]12C [DEFLAZACORT]	Compound metabolized	Compound metabolized	Compound NOT metabolized	Compound metabolized	Compound metabolized	Compound metabolized	Compound metabolized	Compound metabolized	Compound metabolized	Compound metabolized	Compound metabolized	Compound metabolized	Compound metabolized	Compound metabolized	Compound metabolized	Compound metabolized	Compound metabolized	Compound metabolized	Compound metabolized	Compound metabolized
CN(C)CC(c1ccc(O)cc1)C1(O)CCCCC1.O=C(O)CCC(=O)O (stereo not given) [DESVENLAFAXINE SUCCINATE]	Compound NOT metabolized	Compound NOT metabolized	Compound NOT metabolized	Compound NOT metabolized	Compound NOT metabolized	Compound NOT metabolized	Compound NOT metabolized	Compound NOT metabolized	Compound NOT metabolized	Compound NOT metabolized	Compound NOT metabolized	Compound NOT metabolized	Compound NOT metabolized	Compound NOT metabolized	Compound NOT metabolized	Compound NOT metabolized	Compound NOT metabolized	Compound NOT metabolized	Compound NOT metabolized	Compound NOT metabolized
CN1CCN(C(=O)O[C@H]2c3nccnc3C(=O)N2c2ccc(Cl)cn2)CC1 [ESZOPICLONE]	Compound NOT metabolized	Compound NOT metabolized	Compound NOT metabolized	Compound NOT metabolized	Compound NOT metabolized	Compound NOT metabolized	Compound NOT metabolized	Compound NOT metabolized	Compound NOT metabolized	Compound NOT metabolized	Compound NOT metabolized	Compound NOT metabolized	Compound NOT metabolized	Compound NOT metabolized	Compound NOT metabolized	Compound NOT metabolized	Compound NOT metabolized	Compound NOT metabolized	Compound NOT metabolized	Compound NOT metabolized
